Entries after “also recorded” stand apart in the source; their conditions may differ.
Key:
[1] = paclitaxel-eluting composite fibers, most of it over 30 days; cited from earlier work
[2] = Rubbing experiment (mechanical drug removal) with glass slide; format: physicochemical; settings: for flutax-1 removed (washed-out) by rubbing: approx. 125 μg deposited, 1 μL DI water, 500 g weight, 60 seconds
Method: Another experiment was performed that targeted possible drug removal from CNT-fitted drug delivery platform by mechanical (e.g., rubbing) actions during its cardiovascular travel. Two types of specimens were used, a bare sheet of latex and a sheet of latex with CNTs anchored on one side. On each specimen, approximately 125 μg of flutax-1 was deposited by successively dropping small volumes of its ethanol solution and allowed to dry. Next, 1 μL of DI water followed by a microscopic 3×1×5/128-inch glass slide was put on each specimen. Finally, with a 500 g weight on top of it, the microscopic slide was moved back and forth a few millimeters at about 1 cm/sec for 60 seconds (FIG. 8). […] After the test, each of the two specimens was dropped in 2 mL of pure ethanol to see if they still had flutax-1 left on them.

[3] = Diffusion of flutax-1 from anchored CNT array; format: physicochemical

CC(=O)O[C@H]1C(=O)[C@@]2(C)[C@H]([C@H](OC(=O)c3ccccc3)[C@]3(O)C[C@H](OC(=O)[C@H](O)[C@@H](NC(=O)c4ccccc4)c4ccccc4)C(C)=C1C3(C)C)[C@]1(OC(C)=O)CO[C@@H]1C[C@@H]2O [paclitaxel]
drug delivered from stent [1]: about 40%

CC(=O)O[C@H]1C(=O)[C@@]2(C)C([C@H](OC(=O)c3ccccc3)[C@]3(O)C[C@H](OC(=O)[C@H](O)[C@@H](NC(=O)c4ccccc4)c4ccccc4)C(C)=C1C3(C)C)[C@]1(OC(C)=O)CO[C@@H]1C[C@@H]2OC(=O)[C@H](C)NC(=O)c1ccc(-c2c3ccc(=O)cc-3oc3cc(O)ccc23)c(C(=O)O)c1 (stereo partly shown) [flutax-1]
flutax-1 remaining after rubbing, recovered in 2 mL pure ethanol ([2]; CNT-fitted latex sheet): much flutax-1 still remains; also recorded: considerably more flutax-1 released | flutax-1 removed (washed-out) by rubbing ([2]; CNT-fitted latex sheet): almost no | flutax-1 remaining after rubbing, recovered in 2 mL pure ethanol ([2]; bare latex sheet): no more flutax-1 remains | flutax-1 removed (washed-out) by rubbing ([2]; bare latex sheet): significant amount; also recorded: considerably higher flutax-1 removal | movement (diffusion) of flutax-1 molecules ([3]; in DI water): did not move appreciably | movement (diffusion) of flutax-1 molecules, time scale ([3]; in agar): in a matter of minutes
